In patent publication US6436924B1, “Antihistamine leukotriene combinations” (ASTA Medica AG, priority 2000, dated 2002):

System: nasal mucosal permeability in actively sensitized and topically provoked brown Norway rats
Assay: Rhinitis model: nasal mucosal permeability (Evans Blue plasma extravasation) after ovalbumin provocation
Assay type: in vivo
From the text: The following pharmacological investigation describes the action of azelastine and montelukast on their own and in combination on a rhinitis model on brown Norway rats. The brown Norway rats were actively sensitized by double i.p. injection of a suspension of ovalbumin and aluminum hydroxide in physiological saline solution on two successive days. Three weeks after sensitization, a catheter was tied into the trachea of the animals in orthograde manner under sodium thiopental anesthesia to maintain the respiration of the animals and a further catheter was advanced in a retrograde manner through the trachea up to the internal opening of the choanas for the perfusion of the nasal cavities and fixed. The nasal perfusate can thus trickle out through the nasal cavities and be accepted by a fraction collector. The test substances were either suspended in Tylose (montelukast) or dissolved in physiological saline solution (azelastine) and injected intraperitoneally 60 min before allergen provocation. PBS was perfused through the nasal cavity for 30 min using a roller pump (perfusion rate 0.5 ml/min) to rinse mucus away from the nose. In the case of topical application, the test substances are added to the perfusate in molar concentration and the solution is perfused through the nose for 30 min before allergen provocation. The plasma marker Evans Blue (1 ml/animal each of a 1% strength solution in PBS) was then injected into the jugular vein. The perfusion was collected during a 15 min break. The allergen provocation (challenge) was then carried out by perfusion of the nasal cavity with a solution of ovalbumin in PBS (10 mg/ml of ovalbumin in PBS) for 60 min, during which the perfusate was collected in the fraction collector in 15 min fractions. The total amount of the samples/animal was 5. The samples were centrifuged and then applied to microtiter plates and measured at a wavelength of 620 nm using the Digiscan photometer. The blank values were automatically subtracted. The course of action over 60 min was calculated using an AUC program. The substance action of the preparation group was calculated in % against vehicle controls.
An increased mucosal permeability after allergen provocation is to be assessed as a sign of the release of messengers such as histamine and leukotrienes. After antigen contact, this phenomenon occurs even in allergic people and is manifested by increased fluid secretion and nasal blockage.

[1] = 0.1 mg/kg i.p., 60 min before allergen provocation
[2] = 1 mg/kg i.p., 60 min before allergen provocation

## COc1ccc2c(c1)c(O)nn2Cc1ccc(OCc2ccc3ccccc3n2)cc1.Cl.Cl [AWD 23-115, 1-[4-(quinolin-2-ylmethoxy)benzyl]-5-methoxy-1H-indazol-3-ol dihydrochloride]
Dose range of 0.03 to 10 mg/kg i.p.
  dose-dependent inhibition of the vascular permeability: 37-54%
Topical application in the perfusate, 0.1 mmol/l
  Inhibitory action in % (nasal mucosal permeability): 12%
Topical application in the perfusate, 0.3 mmol/l
  Inhibitory action in % (nasal mucosal permeability): 32%
Topical application in the perfusate, 1 mmol/l
  Inhibitory action in % (nasal mucosal permeability): 49%
Topical application, 0.3 μmol/l
  inhibition of the vascular permeability: 32%
Topical application, 1 μmol/l
  inhibition of the vascular permeability: 49%

## CN1CCCC(n2nc(Cc3ccc(Cl)cc3)c3ccccc3c2=O)CC1 (centres unmarked) [Azelastine]
0.01 mg/kg i.p., 60 min before allergen provocation
  Inhibitory action in % (nasal mucosal permeability): 11%
[1]
  Inhibitory action in % (nasal mucosal permeability): 39%
0.3 mg/kg i.p., 60 min before allergen provocation
  Inhibitory action in % (nasal mucosal permeability): 42%
[2]
  Inhibitory action in % (nasal mucosal permeability): 47%
Topical application in the perfusate, 0.003 mmol/l
  Inhibitory action in % (nasal mucosal permeability): 3%
Topical application in the perfusate, 0.01 mmol/l
  Inhibitory action in % (nasal mucosal permeability): 40%
Topical application in the perfusate, 0.03 mmol/l
  Inhibitory action in % (nasal mucosal permeability): 60%
Topical application, concentrations of 0.003 to 0.03 μmol/l
  inhibition of the mucosal plasma extravasation: strong inhibition

## O=C(O)[C@@H](c1ccc(OCc2ccc3ccccc3n2)cc1)C1CCCC1 [Bay X 1005]
[1]
  Inhibitory action in % (nasal mucosal permeability): 31%

## CC(C)(O)c1ccccc1CC[C@@H](SCC1(CC(=O)O)CC1)c1cccc(/C=C/c2ccc3ccc(Cl)cc3n2)c1 [Montelukast]
[1]
  Inhibitory action in % (nasal mucosal permeability): 7%
[2]
  Inhibitory action in % (nasal mucosal permeability): 26%
3 mg/kg i.p., 60 min before allergen provocation
  Inhibitory action in % (nasal mucosal permeability): 39%
10 mg/kg i.p., 60 min before allergen provocation
  Inhibitory action in % (nasal mucosal permeability): 44%
30 mg/kg i.p., 60 min before allergen provocation
  Inhibitory action in % (nasal mucosal permeability): 58%
